Data: EP1708721B1, “MYOCARDIAL PERFUSION IMAGING USING ADENOSINE RECEPTOR AGONISTS” (Gilead Sciences, Inc., priority 2004, dated 2005)
Where two headings read alike, the source gives them in different places.

Columns and labels:
humans = assay: Example 1: open label study, CBFv by Doppler flow wire after IV bolus in catheterization patients; assay type: in vivo
Protocol: The purpose of this open label study was to determine the magnitude and duration of effect of CVT-3146 (10-500 µg) on CBFv in humans.
METHODS: Patients undergoing a clinically indicated coronary catheterization with no more than a 70% stenosis in any coronary artery and no more than a 50% stenosis of the study vessel had CBFv determined by Doppler flow wire. Study subject were selected after measuring baseline and peak CBFv after an intracoronary (IC) injection of 18 µg of Ado. Twenty-three patients, who were identified as meeting the study criteria of having a peak to baseline CBFv ratio of ≥ 2.5 in response to Adenosine, received a rapid (≤ 10 sec) peripheral IV bolus of CVT-3146; Doppler signals were stable and interpretable over the time-course of the increase in CBFv in 17 patients.

human subjects = assay: Example 2: dose range study, coronary flow velocity, heart rate and blood pressure after IV bolus; assay type: in vivo
Protocol: The study included patients undergoing a clinically indicated coronary catheterization with no more than a 70% stenosis in any coronary artery and no more than a 50% stenosis of the study vessel had CBFv determined by Doppler flow wire. Study subject were selected after measuring baseline and peak CBFv after an intracoronary (IC) injection of 18 µg of Ado. 36 subjects were identified as meeting the study criteria of having a peak to baseline CBFv ration of ≥ 2.5 in response to Adenosine,
CVT-3146 was administered to the study subjects by IV bolus in less that 10 seconds in amounts ranging from 10 µg to 500 µg.
The effectiveness of both compounds was measured by monitoring coronary flow velocity. Other coronary parameters that were monitored included heart rate and blood pressure. These parameters were measured in order to evaluate the time to peak dose response, the magnitude of the dose response and the duration of the dose response. Adverse events were also monitored. Coronary blood flow velocity was measured at the left anterior descending coronary artery (LAD) or left circumflex coronary artery (LCx). The velocity measurements were taken by following standard heart catheterization techniques and inserting a 0.014 inch Doppler-tipped Flowire into the LAD or LCx vessel and thereafter monitoring blood flow velocity. In addition, hemodynamic and electrocardiographic measurements were recorded continuously.
Overall, 36 human subjects (n=36) were evaluated. Of the 36, 18 were female and 18 were male. Their mean age was 53.4 and they ranged from 24-72 years in age. Of the 36 subjects evaluated, the LAD vessel of 31 subjects was monitored, and the LCx vessel of 5 subjects was monitored. The following doses (µg) of CVT-3146 were given to the subjects in a single iv bolus: 10 (n=4); 30 (n=6); 100 (n=4); 300 (n=7); 400 (n=9); 500 (n=6).

healthy volunteers = assay: Example 3: maximum tolerated dose and safety after a single IV bolus, supine and standing; assay type: in vivo
Protocol: (§1) This Example is a study performed to evaluate (1) the maximum tolerated dose of CVT-3146 and (2) the pharmacokinetic profile of CVT-3146 in healthy volunteers, after a single IV bolus dose.
The study was performed using thirty-six healthy, non-smoking male subjects between the ages of 18 and 59 and within 15% of ideal body weight
The study was performed in phase 1, single center, double-blind, randomized, placebo-controlled, crossover, ascending dose study. Randomization was to CVT-3146 or placebo, in both supine and standing positions.
(§2) CVT-3146 was administered as an IV bolus (20 seconds) in ascending doses of […], 10, 20 and 30 µg/kg.
Subjects received either CVT-3146 or placebo on Day 1 supine, then crossover treatment on Day 2 supine. On Day 3, subjects received CVT-3146 or placebo standing, then crossover treatment on Day 4 standing.
(§3) Patient safety was monitored by ECG, laboratory assessments, and collection of vital signs and adverse events. Pharmacokinetics: • Plasma samples were drawn during supine phase (Days 1 and 2) at 0, 1, 2, 3, 4, 5, 7,10, 15, 20, 30, 45 minutes after dosing and at 1, 1.5., 2, 4, 6, 8,12 and 24 hours after dosing. Urine was collected for 24 hours for […] excretion. Pharmacodynamics: • The study evaluated the relationship of changes in heart rate to dose in both standing and supine positions and plasma concentration in the supine position.

[1] = Example 3: pharmacokinetic profile after a single IV bolus, three-compartment open model; assay type: in vivo, human; conditions: for Vc / Vd / half-life / clearance: Mean (SD); for Vd / half-life / clearance: intravenous; for Vd: read-out: Vss
Protocol: as §1, §2, §3
A three-compartment open model was fit to the data using observed Tmax (1-4 minutes) as the duration of a zero-order infusion. Reliable parameter estimates were obtained for dose of 1-30 µg/kg. Parameters are summarized in the following (Table 2): Table 2

awake dogs = assay: Example 8: vasodilator effects in different vascular beds of chronically instrumented dogs; assay type: in vivo
Description: In this study the vasodilator effects of CVT-3146 were compared to those of ADO in different vascular beds in awake dogs. Dogs were chronically instrumented for measurements of the blood flow in coronary (CBF), mesenteric (MBF), hind limb (LBF), and renal (RBF) vascular beds, and hemodynamics.

[2] = severe in intensity, 20 µg/kg Standing, 4 subjects per group

CNC(=O)c1cnn(-c2nc(N)c3ncn([C@@H]4O[C@H](CO)[C@@H](O)[C@H]4O)c3n2)c1 [CVT-3146, (1-{9-[(4S,2R,3R,5R)-3,4-dihydroxy-5-(hydroxymethyl)oxolan-2-yl]-6-aminopurin-2-yl}pyrazol-4-yl)-N-methylcarboxamide]
duration of CBFv augmentation (≥ 2-fold increase in CBFv) (humans; 300 µg IV bolus): 4.0 ± 4.9 min | duration of CBFv augmentation (≥ 2-fold increase in CBFv) (humans; 500 µg IV bolus): 6.9 ± 7.6 min | maximal decrease in systolic blood pressure (BP) (humans; 500 µg IV bolus (n=3)): 8.7 ± 7.6 | maximal increase in heart rate (HR) (humans; 500 µg IV bolus (n=3)): 18.7 ± 4.0 | Adverse events (AEs) (humans; 3 patients receiving the 500 µg dose): No AEs were noted | Adverse events (AEs) (humans; 10-500 µg IV bolus, nausea, flushing, headache, mild and self-limited): infrequent | peak to baseline ratio (CBFv) (humans; IV bolus, doses of 100 µg (n=3), 300 µg (n=4) and 500 µg (n=2), mean ± SD): 3.2 ± 0.6 | Maximum decrease in diastolic BP (human subjects; 400 µg IV bolus): 10 ± 5 mmHg | Maximum decrease in systolic BP (human subjects; 400 µg IV bolus): 20 ± 8 mmHg | Maximum increase in heart rate (human subjects; 400 µg IV bolus): 18 ± 8 bpm | time coronary blood flow velocity ≥ 2.5-fold above baseline was maintained (human subjects; 400 µg IV bolus): 2.8 min | time of maximum decrease in diastolic BP after dosing (human subjects; 400 µg IV bolus): about 1 minute | time of maximum increase in heart rate after dosing (human subjects; 400 µg IV bolus): about 1 minute | amount at which plateau peak velocity is reached (human subjects; IV bolus): less than 100 µg | amount that increases peak flow velocity (as low as) (human subjects; IV bolus): 10 µg | time at which peak flow was reached (human subjects; all doses (10 to 500 µg IV bolus)): about 30 seconds | peak effects (human subjects; doses above about 100 µg): equivalent to 18 µg adenosine administered IC | serious adverse events (healthy volunteers; IV bolus 0.1 to 30 µg/kg): no serious adverse events | Number of Subjects with AE: Dizziness (healthy volunteers; [2]): 1 | Number of Subjects with AE: Palpitation (healthy volunteers; [2]): 0 | Number of Subjects with AE: Syncope (healthy volunteers; [2]): 1 | Number of Subjects with AE: Dizziness (healthy volunteers; severe in intensity, 30 µg/kg Supine, 4 subjects per group): 0 | Vc ([1]; Dose 1 µg/kg, N=3): 9.84 (4.12) L | Vc ([1]; Dose 3 µg/kg, N=4): 13.7 (6.06) L | Vc ([1]; Dose 10 µg/kg, N=4): 17.9 (6.11) L | Vc ([1]; Dose 20 µg/kg, N=8): 12.5 (5.83) L | Vc ([1]; Dose 30 µg/kg, N=3): 15.7 (4.59) L | Vc ([1]; Total (doses 1-30 µg/kg), N=22): 13.8 (5.67) L | Vd ([1]; human, plasma, 1 ug/kg, N=3): 69 L | half-life ([1]; human, plasma, 1 ug/kg, N=3, read-out: a Half-life): 2.14 min | half-life ([1]; human, plasma, 1 ug/kg, N=3, read-out: β Half-life): 8.93 min | half-life ([1]; human, plasma, 1 ug/kg, N=3, read-out: λ Half-life): 99 min | Vd ([1]; human, plasma, 3 ug/kg, N=4): 90 L | half-life ([1]; human, plasma, 3 ug/kg, N=4, read-out: a Half-life): 3.11 min | half-life ([1]; human, plasma, 3 ug/kg, N=4, read-out: β Half-life): 17.2 min | half-life ([1]; human, plasma, 3 ug/kg, N=4, read-out: λ Half-life): 130 min | Vd ([1]; human, plasma, 10 ug/kg, N=4): 101 L | half-life ([1]; human, plasma, 10 ug/kg, N=4, read-out: a Half-life): 4.15 min | half-life ([1]; human, plasma, 10 ug/kg, N=4, read-out: β Half-life): 50.2 min | half-life ([1]; human, plasma, 10 ug/kg, N=4, read-out: λ Half-life): 132 min | Vd ([1]; human, plasma, 20 ug/kg, N=8): 75.2 L | half-life ([1]; human, plasma, 20 ug/kg, N=8, read-out: a Half-life): 4.69 min | half-life ([1]; human, plasma, 20 ug/kg, N=8, read-out: β Half-life): 32.6 min | half-life ([1]; human, plasma, 20 ug/kg, N=8, read-out: λ Half-life): 117 min | Vd ([1]; human, plasma, 30 ug/kg, N=3): 89.6 L | half-life ([1]; human, plasma, 30 ug/kg, N=3, read-out: a Half-life): 3 min | half-life ([1]; human, plasma, 30 ug/kg, N=3, read-out: β Half-life): 14 min | half-life ([1]; human, plasma, 30 ug/kg, N=3, read-out: λ Half-life): 99.4 min | Vd ([1]; human, plasma, Total (doses 1-30 µg/kg), N=22): 75.3 L | half-life ([1]; human, plasma, Total (doses 1-30 µg/kg), N=22, read-out: a Half-life): 3.73 min | half-life ([1]; human, plasma, Total (doses 1-30 µg/kg), N=22, read-out: β Half-life): 27.2 min | half-life ([1]; human, plasma, Total (doses 1-30 µg/kg), N=22, read-out: λ Half-life): 86.4 min | clearance ([1]; male, human, plasma, 1 ug/kg, N=3): 737 mL/min | clearance ([1]; male, human, plasma, 3 ug/kg, N=4): 668 mL/min | clearance ([1]; male, human, plasma, 10 ug/kg, N=4): 841 mL/min | clearance ([1]; male, human, plasma, 20 ug/kg, N=8): 743 mL/min | clearance ([1]; male, human, plasma, 30 ug/kg, N=3): 1020 mL/min | clearance ([1]; male, human, plasma, Total (doses 1-30 µg/kg), N=22): 768 mL/min | Tmax ([1]; male, human, plasma, IV bolus, supine, read-out: observed Tmax): 1 to 4 min | duration for CBF above 2-fold of the baseline (awake dogs; 2.5 µg/kg): 130 ± 19 s | increase in LBF (hind limb blood flow) (awake dogs; Figure 18, mean ± SE, n=6, compared with ADO): smaller increase in LBF than ADO
